pIC50, pKi: −log10 of the molar value. In brackets after ≈: the same amount, converted by molar mass. Activity calls are given as the source filed them. No cut-off for these calls is given here.
What was measured:
[1] = Hemolytic activity against sheep RBC at 0.5 mM after 30 mins relative to control; assay type: ADME, cell-based, Ovis aries, Erythrocyte; details: sheep red blood cells (erythrocytes), read-out: Activity
[2] = molecular target: T1, Virulence sensor histidine kinase PhoQ (Salmonella typhimurium (strain LT2 / SGSC1412 / ATCC 700720), UniProt P0DM80); test: (§1) Inhibition of recombinant Salmonella typhimurium N-terminal His6-SUMO-tagged DHp-catalytic domain PhoQ (257 to 487 residues) autophosphorylation expressed in Escherichia coli BL21 (DE3) preincubated for 10 mins followed by [gamma-32P]-ATP addition after 30 mins by phosphotransferase dot blot assay; design: species or system Salmonella enterica subsp. enterica serovar Typhimurium
T1 sequence (P0DM80 whole entry): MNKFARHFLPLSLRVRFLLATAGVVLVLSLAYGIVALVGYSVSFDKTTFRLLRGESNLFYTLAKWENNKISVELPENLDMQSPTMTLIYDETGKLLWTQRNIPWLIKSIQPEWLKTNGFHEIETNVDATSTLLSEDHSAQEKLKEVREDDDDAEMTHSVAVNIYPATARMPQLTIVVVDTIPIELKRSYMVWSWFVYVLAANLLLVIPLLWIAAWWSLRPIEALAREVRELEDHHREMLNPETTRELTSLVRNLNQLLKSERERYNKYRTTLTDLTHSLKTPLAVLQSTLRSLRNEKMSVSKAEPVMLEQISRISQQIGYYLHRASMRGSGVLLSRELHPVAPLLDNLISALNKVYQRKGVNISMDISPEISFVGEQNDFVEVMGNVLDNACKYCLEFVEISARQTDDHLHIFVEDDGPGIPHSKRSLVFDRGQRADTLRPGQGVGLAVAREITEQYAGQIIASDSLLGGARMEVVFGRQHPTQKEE

[3] = molecular target: Cell cycle histidine kinase CckA (Caulobacter vibrioides, UniProt Q9X688); test: Inhibition of recombinant Caulobacter vibrioides cell cycle histidine kinase CckA deltaTM mutant DHp domain (70 to 691 residues) expressed in Escherichia coli in presence of varying levels of ATP measured every 60 secs for 2 hrs by PK/LDH enzyme coupled assay
[4] = molecular target: T2, Cell cycle histidine kinase CckA (Caulobacter vibrioides, UniProt Q9X688); test: Competitive inhibition of Caulobacter vibrioides full length wild type cell cycle histidine kinase CckA deltaTM Escherichia coli BL21-AI in presence of varying levels of ATP measured every 60 secs for 2 hrs by Lineweaver-Burk plot analysis
T2 sequence (Q9X688 whole entry): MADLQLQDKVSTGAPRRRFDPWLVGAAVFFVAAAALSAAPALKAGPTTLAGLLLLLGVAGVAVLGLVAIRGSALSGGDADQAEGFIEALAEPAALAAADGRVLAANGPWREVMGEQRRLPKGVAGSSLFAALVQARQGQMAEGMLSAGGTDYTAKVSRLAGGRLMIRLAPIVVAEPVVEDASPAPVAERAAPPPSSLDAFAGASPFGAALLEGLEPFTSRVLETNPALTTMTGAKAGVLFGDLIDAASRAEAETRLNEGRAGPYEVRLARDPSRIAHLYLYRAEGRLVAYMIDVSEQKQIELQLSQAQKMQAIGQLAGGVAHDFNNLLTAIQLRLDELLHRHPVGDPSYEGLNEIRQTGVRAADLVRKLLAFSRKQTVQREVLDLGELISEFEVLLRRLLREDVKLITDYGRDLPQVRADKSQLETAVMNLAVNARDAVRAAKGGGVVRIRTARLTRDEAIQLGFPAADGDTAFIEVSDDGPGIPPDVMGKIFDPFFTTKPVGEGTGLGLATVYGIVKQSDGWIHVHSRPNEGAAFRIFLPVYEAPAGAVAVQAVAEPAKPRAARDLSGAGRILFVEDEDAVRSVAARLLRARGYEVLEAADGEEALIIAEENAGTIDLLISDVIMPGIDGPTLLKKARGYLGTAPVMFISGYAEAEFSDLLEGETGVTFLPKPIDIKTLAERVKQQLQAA

[5] = test system: Caulobacter vibrioides; test: Antibacterial activity against Caulobacter crescentus NA1000 after 24 hrs by broth dilution method; assay type: functional; details: NA1000, 24 h
[6] = test system: Bacillus subtilis; test: Antibacterial activity against Bacillus subtilis YB886 after 24 hrs by broth dilution method; assay type: functional; details: YB886, 24 h
[7] = test system: Escherichia coli; test: Antibacterial activity against Escherichia coli DC2 after 24 hrs by broth dilution method; assay type: functional; details: DC2, 24 h
[8] = molecular target: T3, Virulence sensor histidine kinase PhoQ (Salmonella typhimurium (strain LT2 / SGSC1412 / ATCC 700720)) (UniProt P0DM80); test: Inhibition of recombinant Salmonella typhimurium N-terminal His6-SUMO-tagged PhoQ (257 to 487 residues) expressed in Escherichia coli BL21 (DE3) assessed as enzyme aggregation at 400 uM after 30 mins by native-PAGE analysis; details: Salmonella enterica subsp. enterica serovar Typhimurium
T3 sequence (whole entry): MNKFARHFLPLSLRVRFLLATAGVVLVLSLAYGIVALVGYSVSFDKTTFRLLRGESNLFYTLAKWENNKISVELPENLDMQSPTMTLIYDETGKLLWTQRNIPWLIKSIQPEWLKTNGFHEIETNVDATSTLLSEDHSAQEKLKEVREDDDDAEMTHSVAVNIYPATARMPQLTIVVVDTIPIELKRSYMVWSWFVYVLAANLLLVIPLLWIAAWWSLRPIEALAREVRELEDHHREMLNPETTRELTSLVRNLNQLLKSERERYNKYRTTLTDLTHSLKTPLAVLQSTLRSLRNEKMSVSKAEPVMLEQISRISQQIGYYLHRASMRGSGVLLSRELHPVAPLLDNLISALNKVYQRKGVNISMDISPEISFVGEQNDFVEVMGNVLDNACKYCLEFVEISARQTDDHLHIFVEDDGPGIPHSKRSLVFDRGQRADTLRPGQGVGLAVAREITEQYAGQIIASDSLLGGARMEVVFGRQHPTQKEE

[9] = molecular target: T3, Virulence sensor histidine kinase PhoQ (Salmonella typhimurium (strain LT2 / SGSC1412 / ATCC 700720)); test: as §1, with “BL21(DE3) at 500 uM” for “BL21 (DE3)”, “assay relative to control” for “assay”; design: scale not given: the % may be the effect or the level left; details: Salmonella enterica subsp. enterica serovar Typhimurium
[10] = molecular target: T4, Cell cycle histidine kinase CckA (Caulobacter vibrioides) (UniProt Q9X688); test: Binding affinity to recombinant Caulobacter vibrioides cell cycle histidine kinase CckA delta 3 mutant DHp domain (190 to 562 residues) expressed in Escherichia coli assessed as change in metlting temperature at 30 uM after 2 mins by SYPRO orange dye based DSF assay
T4 sequence (whole entry): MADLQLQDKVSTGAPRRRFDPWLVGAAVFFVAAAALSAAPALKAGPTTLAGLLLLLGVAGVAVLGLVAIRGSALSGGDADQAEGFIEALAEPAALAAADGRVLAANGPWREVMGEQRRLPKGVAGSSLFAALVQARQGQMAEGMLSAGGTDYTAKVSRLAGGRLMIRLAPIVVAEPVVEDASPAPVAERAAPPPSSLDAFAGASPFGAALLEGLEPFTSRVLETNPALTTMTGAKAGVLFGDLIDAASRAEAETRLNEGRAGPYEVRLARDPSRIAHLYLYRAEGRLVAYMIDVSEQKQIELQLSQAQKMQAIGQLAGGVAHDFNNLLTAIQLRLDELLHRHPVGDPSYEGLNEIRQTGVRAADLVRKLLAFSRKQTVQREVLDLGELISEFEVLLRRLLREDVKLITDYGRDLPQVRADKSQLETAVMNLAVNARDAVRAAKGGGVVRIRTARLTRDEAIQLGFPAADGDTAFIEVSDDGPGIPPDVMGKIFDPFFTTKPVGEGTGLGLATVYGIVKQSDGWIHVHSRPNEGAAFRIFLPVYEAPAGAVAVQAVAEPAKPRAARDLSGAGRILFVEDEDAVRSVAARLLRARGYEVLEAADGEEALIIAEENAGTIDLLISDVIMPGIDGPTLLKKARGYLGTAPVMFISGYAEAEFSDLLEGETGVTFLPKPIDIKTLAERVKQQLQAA

[11] = molecular target: T5, Histidine protein kinase DivJ (Caulobacter vibrioides (strain ATCC 19089 / CB15) (Caulobactercrescentus)) (UniProt Q03228); test: Inhibition of recombinant Caulobacter vibrioides N-terminal His6-tagged DHp-catalytic domain DivJ (188 to 585 residues) autophosphorylation expressed in Escherichia coli BL21(DE3) at 500 uM preincubated for 10 mins followed by [gamma-32P]-ATP addition after 15 mins by phosphotransferase dot blot assay relative to control; design: scale not given: the % may be the effect or the level left
T5 sequence (whole entry): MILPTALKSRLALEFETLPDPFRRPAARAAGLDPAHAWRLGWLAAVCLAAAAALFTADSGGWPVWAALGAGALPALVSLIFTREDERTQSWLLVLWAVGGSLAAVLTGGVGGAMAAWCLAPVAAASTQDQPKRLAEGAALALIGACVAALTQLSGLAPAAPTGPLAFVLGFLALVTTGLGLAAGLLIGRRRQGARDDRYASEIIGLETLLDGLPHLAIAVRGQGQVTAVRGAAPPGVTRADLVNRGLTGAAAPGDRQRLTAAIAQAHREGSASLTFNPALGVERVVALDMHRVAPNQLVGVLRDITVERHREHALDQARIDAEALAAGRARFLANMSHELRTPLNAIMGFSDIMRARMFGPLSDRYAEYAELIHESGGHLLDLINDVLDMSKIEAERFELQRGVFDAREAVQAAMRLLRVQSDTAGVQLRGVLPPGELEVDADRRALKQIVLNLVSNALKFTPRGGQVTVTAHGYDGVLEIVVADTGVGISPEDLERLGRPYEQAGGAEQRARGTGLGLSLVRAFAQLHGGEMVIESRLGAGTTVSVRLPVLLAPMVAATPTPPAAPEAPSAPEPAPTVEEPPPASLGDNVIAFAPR

[12] = molecular target: T3, Virulence sensor histidine kinase PhoQ (Salmonella typhimurium (strain LT2 / SGSC1412 / ATCC 700720)); test: Inhibition of recombinant Salmonella typhimurium N-terminal His6-SUMO-tagged PhoQ (257 to 487 residues) expressed in Escherichia coli BL21 (DE3) assessed as enzyme aggregation at 800 uM after 30 mins by native-PAGE analysis; details: Salmonella enterica subsp. enterica serovar Typhimurium
[13] = molecular target: T5, Histidine protein kinase DivJ (Caulobacter vibrioides (strain ATCC 19089 / CB15) (Caulobactercrescentus)); test: Inhibition of recombinant Caulobacter vibrioides N-terminal His6-tagged DHp-catalytic domain DivJ (188 to 585 residues) expressed in Escherichia coli BL21 (DE3) at 800 uM preincubated for 10 mins followed by [gamma-32P]-ATP addition after 15 mins by phosphotransferase dot blot assay
[14] = molecular target: T5, Histidine protein kinase DivJ (Caulobacter vibrioides (strain ATCC 19089 / CB15) (Caulobactercrescentus)); test: Inhibition of recombinant Caulobacter vibrioides N-terminal His6-tagged DHp-catalytic domain DivJ (188 to 585 residues) expressed in Escherichia coli BL21 (DE3) at 400 uM preincubated for 10 mins followed by [gamma-32P]-ATP addition after 15 mins by phosphotransferase dot blot assay
[15] = test system: Histidine protein kinase DivJ (Caulobacter vibrioides); test: Inhibition of recombinant Caulobacter vibrioides N-terminal His6-tagged catalytic domain DivJ (188 to 585 residues) expressed in Escherichia coli BL21 (DE3) assessed as enzyme aggregation at 400 uM after 30 mins by native-PAGE analysis

SMILES	hemolysis at 0.5 h, 500 µM [1]	pIC50 [2]	pIC50 [3]	pKi [4]	MIC [5]	MIC [6]	MIC [7]	inhibition [8]	Activity [9]	ΔTm [10]	Activity [11]	inhibition [12]	inhibition [13]	inhibition [14]	inhibition [15]
COc1ccc(-c2c(-c3cc(Cl)c(O)cc3O)n[nH]c2C)cc1	3%	3.62	4.85 to 4.91	5.42	–	–	–	–	–	–	–	–	–	–	–
CCc1cc(-c2[nH]nc(C)c2-c2ccc3c(c2)OCCO3)c(O)cc1O	–	–	–	–	150 to 225 µM (≈ 52.9 to 79.3 µg/mL)	112 µM (≈ 39.6 µg/mL)	37.5 to 75 µM (≈ 13.2 to 26.4 µg/mL)	inactive	9%	4 °C	70%	inactive	Active	inactive	–
COc1ccc(-c2c(C)n[nH]c2-c2cc(Cl)c(O)cc2O)cc1	–	–	–	–	225 µM (≈ 74.4 µg/mL)	150 to 225 µM (≈ 49.6 to 74.4 µg/mL)	37.5 to 75 µM (≈ 12.4 to 24.8 µg/mL)	inactive	66%	5 °C	118%	–	–	–	inactive

— ChEMBL document CHEMBL4184156, “Repurposing Hsp90 inhibitors as antibiotics targeting histidine kinases” (Bioorg Med Chem Lett, 2017)
